Results as given in patent US20230220480A1, “IRON-SCORE AND IN VITRO METHOD FOR IDENTIFYING HIGH RISK DLBCL SUBJECTS AND THERAPEUTIC USES AND METHODS” (CENTRE NATIONAL DE LA RECHERCHE SCIENTIFIQUE (CNRS), priority 2019, published 2023).

Experiments:
Assay type in all cases: cell-based, human
[1] = test system: DLBCL-derived cell lines (U2932, DB and OCI-LY3); assay: Concentration matrix test, synergy matrix (Bliss equation); details: DB cell line, 96 h, combined with Doxorubicin
Experimental: (§1) The DB DLBCL-derived cell lines were treated with increasing concentrations of Ironomycin combined with Doxorubicin for 96 h and cell viability was tested by ATP quantification to obtain the viability matrix. The synergy matrix was calculated as described in Material and Methods (A).
as §1, with “Three” for “The DB”, “Venetoclax” for “Doxorubicin”, “Methods. FIG. 8A: U2932 cell line; FIG. 8B: DB cell line; FIG. 8C: OCI-LY3 cell line.” for “Methods (A).”
Two DLBCL-derived cell lines were treated with increasing concentrations of Ironomycin combined with Ibrutinib for 96 h and cell viability was tested by ATP quantification to obtain the viability matrix. The synergy matrix was calculated as described in Material and Methods. […]
Two DLBCL-derived cell lines were treated with increasing concentrations of Ironomycin combined with Venetoclax for 96 h and cell viability was tested by ATP quantification to obtain the viability matrix. The synergy matrix was calculated as described in Material and Methods. […]
Three DLBCL-derived cell lines were treated with increasing concentrations of Ironomycin combined with Venetoclax for 96 h and cell viability was tested by ATP quantification to obtain the viability matrix. […]

DLBCL cells [2] = assay: Ferroptosis, Bodipy-C11 staining and ferrostatin-1 rescue
DLBCL cells [3] = assay: DNA double strand breaks, Phospho-H2A.X (Ser139) foci and western blot; details: 24 hours
Experimental: DSB induction was monitored by Phospho-H2A·X (Ser139) staining and nuclei were stained with DAPI. Foci were visualized by fluorescence microscopy. Original magnification X 63. Scale bar: 10 μm.
Cells were treated with iron chelators (80 μM Deferasirox), and Ironomycin (20 nM and 100 nM) during 24H. Protein levels of Phospho-H2A·X (S139) were analyzed by western blot (D)
At least 300 cells were counted for each group. Statistical difference was tested using a Fisher's exact test. * P<0.05, ** P<0.01, *** P<0.001, **** P<0.0001. NS: non-significant.

DB = assay: Cell viability assay (CellTiter-Glo, ATP quantification); details: 96H, read-out: IC50
Experimental: (§2) FIG. 3: Iron chelators and Ironomycin inhibit DLBCL cell growth DLBCL cells were incubated with different concentrations of iron chelators or vehicle for 96H. Inhibitory concentration 50% (IC50) was calculated with concentration-response curve after treatment with Deferoxamin (A), Deferasirox, (B) and Ironomycin (C). Cell viability was examined using quantification of ATP assay. Data are expressed as mean percentage+/−SEM of at least three independent experiments performed in sixplicate.
(§3) The 16 DLBCL cell lines (U2932, OCI-LY-3, NU-DHL-1, OCI-LY-19, DB, SUDHL4, OCILY1, SUDHL5, DOHH2, SUDHL10, HT, RI-1, SU-DHL-6, NUDUL-1, WSU-DLCL-2 and OCI-LY-7) were purchased from the DSMZ (Leibniz-Institut DSMZ—Deutsche Sammlung von Mikroorganismen und Zellkulturen GmbH, Germany). They were maintained in RPMI-1640 (Gibco, Invitrogen), supplemented with 10% fetal bovine serum (PAA laboratory GmbH) for U2932, SUDHL-4, HT, DOHH2, SUDHL-10, RI-1, WSU-DLCL-2 cell lines, 20% FBS OCI-LY3, DB, SUDHL-5, NUDHL-1, SU-DHL-6, NUDUL-1 cell lines. OCI-LY1 and OCI-LY7 were cultured in IMDM (Gibco, Invitrogen), supplemented with 20% fetal bovine serum and OCI-LY19 was cultured in MEM alpha modified (Gibco, Invitrogen), supplemented with 20% fetal bovine serum. Cultures were maintained at 37° C. in a humidified atmosphere with 5% CO2.
(§4) DLBCL-derived cell lines were cultured for 4 days in 96-well flat-bottom microtiter plates in RPMI 1640 medium, 10% or 20% FCS (control medium) in the presence of various compounds. The number of viable cells in culture was determined using the CellTiter-Glo Luminescent Cell Viability Assay from Promega, Madison, Wis., USA using a Centro LB 960 luminometer (Berthold Technologies, Bad Wildbad, Germany).
(§5) This test is based on quantitation of the intracellular ATP present, which signals the presence of metabolically active cells. Data are expressed as the mean percentage of six replicates, normalized to the untreated control.

OCI-LY3 = assay: as above; details: OCI-LY3, 96H; read-out: IC50
Experimental: as §2, §3, §4, §5

U2932 = assay: as above; details: U2932, 96H; read-out: IC50
Experimental: as §2, §3, §4, §5

SUDHL-5 = assay: as above; details: SUDHL5, 96H; read-out: IC50
Experimental: as §2, §3, §4, §5

## C#CCN[C@@H]1C=C[C@]2(O[C@H]([C@@H](CC)C(=O)[C@@H](C)[C@@H](O)[C@H](C)[C@@H]3O[C@@H]([C@@H](CC)C(=O)O)CC[C@@H]3C)[C@@H](C)C[C@H]2C)O[C@@]12CC[C@@](C)([C@H]1CC[C@](O)(CC)[C@H](C)O1)O2 [Ironomycin]
[1]
  potentiation of doxorubicin toxicity (synergy matrix): significantly potentialized the toxicity of doxorubicin
DLBCL cells [2]
  prevention of induced cell death by ferrostatin-1: partially prevented
  rescue of toxicity by combination of Oph-Q-VD and Fer-1: could not completely abrogate
DLBCL cells [2]; Bodipy-C11 staining
  induction of ferroptosis (lipid peroxidation): induces ferroptosis
DLBCL cells [3]
  DNA double strand breaks (γH2AX foci, H2AX phosphorylation): induced DNA double strand breaks
DB
  IC50: 0.0172 µM
OCI-LY3
  IC50: 0.0168 µM
U2932
  IC50: 0.0304 µM
SUDHL-5
  IC50: 0.0289 µM
